Article PMC12211128, “Safety, tolerability, pharmacokinetic and pharmacodynamic effects of the muscarinic M1 positive allosteric modulator VU0467319 for Alzheimer’s disease: a single ascending-dose study in healthy participants” (Alzheimer's Research & Therapy, 2025)
Marks after values point to notes of the source that are not given here.

Tested on: healthy participants
Experiment: Visual oddball ERP task
Type: in vivo, human
Details: for Mean amplitude over the parietal cortex, Visual Oddball, Standard trials / Mean amplitude over the parietal cortex, Visual Oddball, Target trials: mean (SD)
Experimental: Following the cognitive battery, an electrophysiology recording was set up. Visual and auditory ERPs were recorded using a 128-channel Geodesic sensor net (EGI, Inc., Eugene, OR; [37, 38]). The electrophysiological recording was sampled at 250 Hz with filters set at 0.1–100 Hz. During data collection, all electrodes were referenced to vertex (Cz). The recording session lasted approximately 30 min.
Auditory and visual oddball tasks were performed to assess attention in auditory and visual modalities. In the auditory task, a pair of two pure tones (single formant) at 1000 and 1500 Hz were the stimuli. In the visual task, the stimuli were a pair of letters (X & O). The assignment of stimuli to standard and target conditions (70% & 30% of the trials respectively), was counterbalanced across participants. Each participant was asked to press a different button using their preferred hand upon presentation of the standard and the target stimulus. On average, auditory and visual tasks lasted 6–7 min each.
ERP processing and Analysis: Single-trial ERPs were derived by extracting a 100-ms pre-stimulus baseline and a 900 ms post-stimulus interval. The trials were screened for ocular and motor artifacts using automated procedures with standard threshold settings (NetStation 4.4, EGI, Inc) and verified using manual review. Data for electrodes characterized by consistent artifacts were replaced using the spherical spline interpolation algorithm. If more than 15 electrodes within a trial were noisy, the entire trial was discarded. Remaining artifact-free trials were averaged separately for each condition (standard vs. oddball; novel vs. repeated images), re-referenced to an average reference, and baseline corrected. For individual participant’s data to be included in the analysis, each condition average had to have a minimum of 10 artifact-free trials.
Statistical analysis focused on a priori selected electrode clusters corresponding to frontal, central, and parietal midline locations (Fz, Cz, Pz in 10–20 notation), confirmed using spatial principal components analysis. Mean amplitudes were calculated within 250–400 ms (frontal P3a), 300–500 ms (parietal P300), and 500–800 ms (parietal P600) temporal windows. These a-priori selected windows were confirmed using temporal principal components analysis.
Analyses for the auditory and visual oddball ERPs focused on the parietal (P300) and frontal (P3a) responses to standard and target stimuli. Differences in the amplitude, latency, and scalp topography of the responses were examined. […] For the incidental memory paradigm, differences in the mean amplitude of the parietal P300/P600 responses to repeated vs. novel presentations. The amplitude of the parietal P300/P600 waveform measures stimulus recognition. A larger positive amplitude for repeated compared to novel images indicates spontaneous formation of a memory trace.
Auditory and visual oddball tasks were performed to assess attention in auditory and visual modalities (Comerchero & Polich, 1999; Polich, 2007). In the auditory task, a pair of two pure tones (single formant) at 1000 and 1500 Hz were the stimuli. Tones were equated in duration (300 ms) and rise/decay times. Tones were presented at 75 dB SPL (measured at the ear) through a speaker positioned 1 meter in front of the participant. In the visual task, the stimuli were a pair of letters (X & O). All stimuli were presented in random order for 500 ms in the center of a computer monitor positioned 1 meter in front of the participant. For both auditory and visual tasks, 200 trials were presented with the inter-stimulus interval varying randomly between 1000-1300 ms to prevent habituation to stimulus onset. The assignment of stimuli to standard and target conditions (70% & 30% of the trials respectively), was counterbalanced across participants. […]

[1] = SAD study, 120mg, Post-Drug, n = 5
[2] = SAD study, 120mg, Pre-Drug, n = 5
[3] = SAD study, 240mg, Post-Drug, n = 5
[4] = VU319 120 mg, fasting, post-drug session, n = 9
[5] = VU319 120 mg, fasting, pre-drug session, n = 9
[6] = VU319 120 mg, fed, pre-drug session, n = 9

## Cn1cc2c(-c3cc(F)c(CN4Cc5ncccc5C4=O)c(F)c3)cccc2n1 [VU319]
120 mg, fasted condition
  Visual oddball P300 amplitude, targets vs standards: no difference
120 mg, fed, post-dose session, p = 0.061
  Visual oddball P300 amplitude, targets vs standards, effect size d: 0.73
120 mg, fed, pre-dose session, p = 0.039
  Visual oddball P300 amplitude, targets vs standards, effect size d: 0.82
400 mg, p = 0.05
  Visual oddball parietal amplitude, target vs standard, post- vs pre-dose, effect size d: 1.28
600 mg, t < 1
  Visual oddball parietal amplitude, target vs standard, post- vs pre-dose effect: not found
SAD study, 60 mg, Post-Drug
  Mean amplitude over the parietal cortex, Visual Oddball, Standard trials: -0.66 (1.57) µV
  Mean amplitude over the parietal cortex, Visual Oddball, Target trials: 1.36 (0.91) µV
SAD study, 60 mg, Pre-Drug
  Mean amplitude over the parietal cortex, Visual Oddball, Standard trials: -0.13 (1.23) µV
  Mean amplitude over the parietal cortex, Visual Oddball, Target trials: 1.19 (1.9) µV
[1]
  Mean amplitude over the parietal cortex, Visual Oddball, Standard trials: 0.01 (1.05)^# µV
  Mean amplitude over the parietal cortex, Visual Oddball, Target trials: 1.5 (1.26)^# µV
[2]
  Mean amplitude over the parietal cortex, Visual Oddball, Standard trials: 0.99 (1.12)^# µV
  Mean amplitude over the parietal cortex, Visual Oddball, Target trials: 2.71 (1.58)^# µV
[3]
  Mean amplitude over the parietal cortex, Visual Oddball, Standard trials: 1.02 (1.44)^# µV
  Mean amplitude over the parietal cortex, Visual Oddball, Target trials: 2.2 (2.28)^# µV
SAD study, 240 mg, Pre-Drug
  Mean amplitude over the parietal cortex, Visual Oddball, Standard trials: 0.32 (1.04) µV
  Mean amplitude over the parietal cortex, Visual Oddball, Target trials: 1.93 (1.88) µV
SAD study, 400 mg, Post-Drug
  Mean amplitude over the parietal cortex, Visual Oddball, Standard trials: 1.48 (0.73) µV
  Mean amplitude over the parietal cortex, Visual Oddball, Target trials: 2.7 (1.92) µV
SAD study, 400 mg, Pre-Drug
  Mean amplitude over the parietal cortex, Visual Oddball, Standard trials: 1.04 (1.03) µV
  Mean amplitude over the parietal cortex, Visual Oddball, Target trials: 1.75 (1.5) µV
SAD study, 600 mg, Post-Drug
  Mean amplitude over the parietal cortex, Visual Oddball, Standard trials: 1.47 (1.1) µV
  Mean amplitude over the parietal cortex, Visual Oddball, Target trials: 3.1 (2.23) µV
SAD study, 600 mg, Pre-Drug
  Mean amplitude over the parietal cortex, Visual Oddball, Standard trials: 1.46 (2.51) µV
  Mean amplitude over the parietal cortex, Visual Oddball, Target trials: 3.46 (2.31) µV
[4]
  Mean amplitude over the parietal cortex, Visual Oddball, Standard trials: -0.16 (1.73) µV
  Mean amplitude over the parietal cortex, Visual Oddball, Target trials: 0.72 (3.1) µV
[5]
  Mean amplitude over the parietal cortex, Visual Oddball, Standard trials: -0.16 (1.28) µV
  Mean amplitude over the parietal cortex, Visual Oddball, Target trials: 0.71 (1.6) µV
VU319 120 mg, fed, post-drug session, n = 9
  Mean amplitude over the parietal cortex, Visual Oddball, Standard trials: 0.25 (0.62) µV
[6]
  Mean amplitude over the parietal cortex, Visual Oddball, Standard trials: -0.29 (1.17) µV
  Mean amplitude over the parietal cortex, Visual Oddball, Target trials: 0.91 (1.49) µV
